Assay results taken from patent US20190375791A1, “NEW D-CONFIGURED CATESLYTIN PEPTIDE” (priority 2016, published 2019).

Key:
Enterococcus faecalis = assay type: cell-based; conditions: saturated solution of Ca(OH)2 (1.7 mg/mL, pH 9)
Method: (§1) Enterococcus faecalis (CCM 2541) was obtained from the Czechoslovac Collection of Microorganisms (Czech Republic) Bacteria were cultured in Anaerobe Basal Broth (Oxoid, France) at 37° C. in anaerobic conditions. Candida albicans (ATCC© 10231™) was cultured in Sabouraud medium (BD, France) supplemented with tetracycline (10 μg/mL) and cefotaxime (10 μg/mL).
(§2) An overnight culture of each pathogen was diluted (OD600 nm=0.001) and incubated at 37° C. in 96-plates in the presence of different concentrations of antimicrobial agents. When testing Ca(OH)2, the pH of the solution was measured with by pH meter. (CyberScan pH 510©, Eutech, France). After 24 h incubation, the OD620 nm was evaluated with a spectrophotometer (Multikan EX, ThermoScientific, France). Each assay was done at least in triplicate. For each set of assay, the standard deviation was determined.

Candida albicans = test: Broth dilution assay (Example 2); assay type: cell-based; conditions: Ca(OH)2 0.85 mg/mL alone, or combined with ½ MIC of D-CTL
Method: as §1, §2

Fusobacterium nucleatum = test: Broth dilution assay (Example 2); assay type: cell-based
Method: as §1, §2

Prevotella intermedia = test: Broth dilution assay (Example 2); assay type: cell-based; conditions: Ca(OH)2 0.85 mg/mL alone, or combined with ½ MIC of D-CTL
Method: as §1, §2

Parvimonas micra = test: Broth dilution assay (Example 2); assay type: cell-based; conditions: Ca(OH)2 0.85 mg/mL alone, or combined with ½ MIC of D-CTL
HGF-1 cells = test: MTT cytotoxicity assay on HGF-1 cells (Example 2); assay type: cell-based, human
Method: The mammalian cell line HGF-1 (ATCC® CRL-2014™) was commercially obtained by ATCC and cultured at 37° C. and 5% CO2 in Dulbecco's Modified Eagle's Medium (Thermo Fisher Scientific, France) supplemented with 10% (v/v) bovine calf serum (Dutscher, France) and 1% (v/v) penicillin-streptomycin (Thermo Fisher Scientific, France).
The cytotoxicity of the antimicrobial agents was examined by MTT [3(4,5-dimethylthiazol-2-yl)-2,5 diphenyl tetrazolium bromide] assays (Scientific Life—France) against HGF-1 cells. Cells were incubated for 24 h in a 96-wells plate before being treated with various concentrations of Ca(OH)2 alone or supplemented with the peptide. As a control, cells were plated in each 96-wells without being treated. After 24 h, 48 h and 72 h incubation, cells were carefully washed with PBS and treated with MTT at a final concentration of 0.25 mg/mL. HGF-1 cells were then incubated for 2 h at 37° C. before being lysed with isopropanol/HCL (48:2, v/v). Cell viability was assessed by reading the OD540 nm with a Multiskan EX microplate spectrophotometer (Thermo Fisher Scientific, France). The OD540 nm of each well was then compared to the […] of the control. For each set of experiments, standard deviations were determined.

[1] = literature (Schmidtchen et al., 2002); cited from earlier work

Compound: [Ca+2].[OH-].[OH-] [Ca(OH)2]
- inhibition rate of E. faecalis growth (Enterococcus faecalis): 58% (±5%)
- inhibition of C. albicans growth (Candida albicans): 87%±2%
- inhibition of F. nucleatum growth (Fusobacterium nucleatum; Ca(OH)2 0.85 mg/mL alone, or combined with ½ MIC of D-CTL): 30%±10%
- inhibition of the growth of F. nucleatum (Fusobacterium nucleatum; saturated solution of Ca(OH)2 (1.7 mg/mL, pH 9)): 100% (±1%)
- inhibition of P. intermedia growth (Prevotella intermedia): 77%±6%
- inhibition of P. micra growth (Parvimonas micra): 15%±6%
- toxicity on HGF-1 (HGF-1 cells; Ca(OH)2 0.425 g/L, after three days incubation): below 4% (±7%)
- toxicity on HGF-1 (HGF-1 cells; Ca(OH)2 0.85 g/L, after three days incubation): below 4% (±7%)
- toxicity on HGF-1 (HGF-1 cells; saturated solution of Ca(OH)2 (1.7 mg/mL), after 24 h): 20% (±7%)
- toxicity on HGF-1 (HGF-1 cells; saturated solution of Ca(OH)2 (1.7 mg/mL), after 72 h incubation): 50% (±6%)
- toxicity on HGF-1 (HGF-1 cells; saturated solution of Ca(OH)2 (1.7 mg/mL), second of three values, time not clearly printed): 14% (±11%)

Compound: LL-37
- degradation by the virulence factors of E. faecalis [1]: completely degraded
